{"source": "paper PMC6407913", "about": "“DREADD Agonist 21 Is an Effective Agonist for Muscarinic-Based DREADDs in Vitro and in Vivo” (ACS Pharmacology & Translational Science, 2018)", "type_in_all_cases": "cell-based", "key": {"[1]": {"target": "318 nonolfactory human GPCRs (Homo sapiens, UniProt P61073)", "sequence (P61073 whole entry)": "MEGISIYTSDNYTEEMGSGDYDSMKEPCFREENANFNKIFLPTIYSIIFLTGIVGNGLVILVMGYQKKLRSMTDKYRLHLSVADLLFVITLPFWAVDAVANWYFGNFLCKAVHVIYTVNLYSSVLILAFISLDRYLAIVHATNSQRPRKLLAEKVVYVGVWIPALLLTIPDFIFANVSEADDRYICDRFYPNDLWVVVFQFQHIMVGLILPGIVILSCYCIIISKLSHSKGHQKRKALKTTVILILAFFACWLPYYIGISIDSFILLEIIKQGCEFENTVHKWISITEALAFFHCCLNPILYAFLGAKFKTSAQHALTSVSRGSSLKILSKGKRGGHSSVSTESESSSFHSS", "settings": "CXCR4; C21 5 µM"}, "[2]": {"tested_on": "318 nonolfactory human GPCRs", "settings": "for FOLD OVER BASAL: C21 5 µM"}, "[3]": {"target": "T1, 318 nonolfactory human GPCRs (Homo sapiens, UniProt P48039)", "T1 construct": "expressed in transfected cells; host or cells: HTLA cells, transient", "settings": "MTNR1A; C21 5 µM"}, "[4]": {"target": "T2, 318 nonolfactory human GPCRs (Homo sapiens, UniProt P24530)", "T2 construct": "expressed in transfected cells; host or cells: HTLA cells, transient", "settings": "EDNRB; C21 5 µM"}, "[5]": {"target": "318 nonolfactory human GPCRs (Homo sapiens, UniProt P28335, I156V/I160V)", "settings": "HTR2C VNV; C21 5 µM"}, "[6]": {"target": "T3, 318 nonolfactory human GPCRs (Homo sapiens, UniProt P30968)", "T3 construct": "expressed in transfected cells; host or cells: HTLA cells, transient", "settings": "GNRHR; C21 5 µM"}, "[7]": {"target": "318 nonolfactory human GPCRs (Homo sapiens, UniProt Q15743)", "sequence (Q15743 whole entry)": "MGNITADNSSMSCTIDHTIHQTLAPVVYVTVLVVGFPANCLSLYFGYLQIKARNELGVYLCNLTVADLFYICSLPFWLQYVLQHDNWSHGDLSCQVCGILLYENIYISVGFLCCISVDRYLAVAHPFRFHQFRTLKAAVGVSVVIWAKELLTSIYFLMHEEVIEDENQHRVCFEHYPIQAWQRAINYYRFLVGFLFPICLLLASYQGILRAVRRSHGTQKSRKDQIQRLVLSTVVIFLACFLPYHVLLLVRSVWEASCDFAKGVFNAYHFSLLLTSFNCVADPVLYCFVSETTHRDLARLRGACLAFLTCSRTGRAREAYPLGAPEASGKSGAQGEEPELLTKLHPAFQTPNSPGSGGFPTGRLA", "settings": "GPR68; C21 5 µM"}, "[8]": {"target": "T4, 318 nonolfactory human GPCRs (Homo sapiens, UniProt Q9P1P5)", "T4 construct": "expressed in transfected cells; host or cells: HTLA cells, transient", "T4 sequence (Q9P1P5 whole entry)": "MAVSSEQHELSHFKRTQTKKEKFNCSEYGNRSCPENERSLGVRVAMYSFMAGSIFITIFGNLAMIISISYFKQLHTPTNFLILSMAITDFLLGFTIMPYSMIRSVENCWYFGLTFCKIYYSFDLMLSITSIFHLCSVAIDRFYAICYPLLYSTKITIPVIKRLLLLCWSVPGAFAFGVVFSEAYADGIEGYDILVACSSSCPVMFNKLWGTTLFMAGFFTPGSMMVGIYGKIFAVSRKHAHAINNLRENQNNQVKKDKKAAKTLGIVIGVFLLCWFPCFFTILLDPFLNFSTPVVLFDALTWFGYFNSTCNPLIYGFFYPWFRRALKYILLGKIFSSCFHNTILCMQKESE", "settings": "TAAR2; C21 5 µM"}, "[9]": {"target": "T5, 318 nonolfactory human GPCRs (Homo sapiens, UniProt Q15760)", "T5 construct": "expressed in transfected cells; host or cells: HTLA cells, transient", "settings": "GPR19; C21 5 µM"}, "[10]": {"target": "318 nonolfactory human GPCRs (Homo sapiens, UniProt P21462)", "sequence (P21462 whole entry)": "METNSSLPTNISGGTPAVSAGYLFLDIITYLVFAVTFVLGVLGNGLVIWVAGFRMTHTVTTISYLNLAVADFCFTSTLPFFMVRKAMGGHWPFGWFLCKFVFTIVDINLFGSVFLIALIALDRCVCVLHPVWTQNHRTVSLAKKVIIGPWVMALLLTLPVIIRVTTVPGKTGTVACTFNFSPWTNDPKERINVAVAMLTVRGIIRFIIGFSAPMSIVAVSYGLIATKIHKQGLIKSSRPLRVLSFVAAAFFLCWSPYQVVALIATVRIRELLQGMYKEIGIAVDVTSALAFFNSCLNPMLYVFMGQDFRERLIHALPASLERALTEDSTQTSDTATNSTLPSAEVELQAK", "settings": "FPR1; C21 5 µM"}, "[11]": {"target": "T6, 318 nonolfactory human GPCRs (Homo sapiens, UniProt Q96LB1)", "T6 construct": "expressed in transfected cells; host or cells: HTLA cells, transient", "T6 sequence (Q96LB1 whole entry)": "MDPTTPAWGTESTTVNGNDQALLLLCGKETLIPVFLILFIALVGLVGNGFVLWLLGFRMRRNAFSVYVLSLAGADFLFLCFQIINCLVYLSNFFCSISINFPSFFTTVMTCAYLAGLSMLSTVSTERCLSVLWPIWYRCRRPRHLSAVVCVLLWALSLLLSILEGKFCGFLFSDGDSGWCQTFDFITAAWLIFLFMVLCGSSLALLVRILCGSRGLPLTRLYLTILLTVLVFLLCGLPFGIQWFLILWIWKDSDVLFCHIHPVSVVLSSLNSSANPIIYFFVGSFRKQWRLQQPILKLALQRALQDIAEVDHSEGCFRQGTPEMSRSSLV", "settings": "MRGPRX2; C21 5 µM"}, "[12]": {"target": "T7, 318 nonolfactory human GPCRs (Homo sapiens, UniProt P48146)", "T7 construct": "expressed in transfected cells; host or cells: HTLA cells, transient", "settings": "NPBW2; C21 5 µM"}, "[13]": {"target": "T8, 318 nonolfactory human GPCRs (Homo sapiens, UniProt Q6U736)", "T8 construct": "expressed in transfected cells; host or cells: HTLA cells, transient", "T8 sequence (Q6U736 whole entry)": "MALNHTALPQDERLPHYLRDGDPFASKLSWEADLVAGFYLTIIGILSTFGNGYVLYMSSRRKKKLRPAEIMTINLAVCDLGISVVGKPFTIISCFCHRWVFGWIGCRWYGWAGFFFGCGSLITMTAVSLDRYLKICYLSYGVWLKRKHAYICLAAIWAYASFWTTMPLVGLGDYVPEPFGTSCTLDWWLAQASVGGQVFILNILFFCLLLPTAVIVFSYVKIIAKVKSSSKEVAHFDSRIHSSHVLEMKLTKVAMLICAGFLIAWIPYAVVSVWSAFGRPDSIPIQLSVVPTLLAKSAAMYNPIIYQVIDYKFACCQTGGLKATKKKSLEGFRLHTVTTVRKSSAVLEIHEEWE", "settings": "OPN5; C21 5 µM"}, "[14]": {"target": "T9, 318 nonolfactory human GPCRs (Homo sapiens, UniProt P08908)", "T9 construct": "expressed in transfected cells; host or cells: HTLA cells, transient", "settings": "HTR1A; C21 5 µM"}, "[15]": {"target": "T10, 318 nonolfactory human GPCRs (Homo sapiens, UniProt O15552)", "T10 construct": "expressed in transfected cells; host or cells: HTLA cells, transient", "T10 sequence (O15552 whole entry)": "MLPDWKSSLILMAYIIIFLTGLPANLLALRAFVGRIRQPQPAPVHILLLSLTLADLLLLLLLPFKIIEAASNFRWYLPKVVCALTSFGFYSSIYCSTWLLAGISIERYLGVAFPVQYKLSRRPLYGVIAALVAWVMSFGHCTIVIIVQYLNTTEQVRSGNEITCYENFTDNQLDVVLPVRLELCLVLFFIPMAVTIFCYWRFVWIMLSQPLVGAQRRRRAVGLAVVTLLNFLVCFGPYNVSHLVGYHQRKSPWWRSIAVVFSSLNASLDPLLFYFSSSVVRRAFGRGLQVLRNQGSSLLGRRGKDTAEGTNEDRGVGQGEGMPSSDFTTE", "settings": "FFA2; C21 5 µM"}, "[16]": {"target": "T11, 318 nonolfactory human GPCRs (Homo sapiens, UniProt P32302)", "T11 construct": "expressed in transfected cells; host or cells: HTLA cells, transient", "T11 sequence (P32302 whole entry)": "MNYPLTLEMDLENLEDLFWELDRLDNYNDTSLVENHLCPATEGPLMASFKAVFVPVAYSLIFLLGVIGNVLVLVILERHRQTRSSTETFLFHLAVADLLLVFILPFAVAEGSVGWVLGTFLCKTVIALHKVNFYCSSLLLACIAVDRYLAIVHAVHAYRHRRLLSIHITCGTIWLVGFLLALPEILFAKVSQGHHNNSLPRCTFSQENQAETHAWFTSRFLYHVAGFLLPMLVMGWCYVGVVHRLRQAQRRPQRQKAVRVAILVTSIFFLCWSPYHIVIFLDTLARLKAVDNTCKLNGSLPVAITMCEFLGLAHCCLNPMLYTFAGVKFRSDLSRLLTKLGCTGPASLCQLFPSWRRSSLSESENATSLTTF", "settings": "CXCR5; C21 5 µM"}, "[17]": {"target": "318 nonolfactory human GPCRs (Homo sapiens, UniProt P43220)", "settings": "GLP1R; C21 5 µM"}, "[18]": {"target": "T12, 318 nonolfactory human GPCRs (Homo sapiens, UniProt Q01718)", "T12 construct": "expressed in transfected cells; host or cells: HTLA cells, transient", "T12 sequence (Q01718 whole entry)": "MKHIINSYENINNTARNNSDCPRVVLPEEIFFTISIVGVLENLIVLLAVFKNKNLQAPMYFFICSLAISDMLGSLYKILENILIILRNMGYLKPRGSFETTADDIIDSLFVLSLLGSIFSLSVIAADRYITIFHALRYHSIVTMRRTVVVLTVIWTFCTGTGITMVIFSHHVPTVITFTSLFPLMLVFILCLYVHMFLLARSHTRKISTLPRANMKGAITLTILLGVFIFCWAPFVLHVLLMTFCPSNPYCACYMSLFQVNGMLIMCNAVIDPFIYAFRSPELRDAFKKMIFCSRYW", "settings": "MC2R; C21 5 µM"}, "[19]": {"target": "318 nonolfactory human GPCRs (Homo sapiens, UniProt P30989)", "sequence (P30989 whole entry)": "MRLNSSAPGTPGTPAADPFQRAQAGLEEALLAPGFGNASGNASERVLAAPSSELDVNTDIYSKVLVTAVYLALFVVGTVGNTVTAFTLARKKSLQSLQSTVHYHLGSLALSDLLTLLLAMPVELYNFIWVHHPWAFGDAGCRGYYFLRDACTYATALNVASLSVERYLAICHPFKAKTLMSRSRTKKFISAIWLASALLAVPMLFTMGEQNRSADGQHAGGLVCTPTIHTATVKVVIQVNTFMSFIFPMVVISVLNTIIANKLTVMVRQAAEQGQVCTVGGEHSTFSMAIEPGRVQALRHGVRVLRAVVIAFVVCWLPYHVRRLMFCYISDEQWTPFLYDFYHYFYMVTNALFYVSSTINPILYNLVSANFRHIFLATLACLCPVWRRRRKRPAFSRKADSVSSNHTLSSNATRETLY", "settings": "NTSR1; C21 5 µM"}, "[20]": {"target": "318 nonolfactory human GPCRs (Homo sapiens, UniProt P14416)", "settings": "DRD2; C21 5 µM"}, "[21]": {"target": "318 nonolfactory human GPCRs (Homo sapiens, UniProt P21917)", "sequence (P21917 whole entry)": "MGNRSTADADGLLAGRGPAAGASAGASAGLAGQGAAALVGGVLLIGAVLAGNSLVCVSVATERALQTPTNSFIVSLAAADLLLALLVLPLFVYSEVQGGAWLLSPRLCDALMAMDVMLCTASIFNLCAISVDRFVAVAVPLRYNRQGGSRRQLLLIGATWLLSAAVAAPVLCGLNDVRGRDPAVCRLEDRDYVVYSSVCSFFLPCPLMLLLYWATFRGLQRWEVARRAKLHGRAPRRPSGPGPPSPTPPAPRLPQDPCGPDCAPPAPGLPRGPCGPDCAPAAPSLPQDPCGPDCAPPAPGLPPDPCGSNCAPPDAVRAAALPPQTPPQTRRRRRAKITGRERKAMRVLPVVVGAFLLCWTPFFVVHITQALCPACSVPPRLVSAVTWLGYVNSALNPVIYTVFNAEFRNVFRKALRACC", "settings": "DRD4; C21 5 µM"}, "[22]": {"target": "318 nonolfactory human GPCRs (Homo sapiens, UniProt P25090)", "settings": "FPR2; C21 5 µM"}, "[23]": {"target": "318 nonolfactory human GPCRs (Homo sapiens, UniProt Q96PE1)", "settings": "GPR124; C21 5 µM"}, "[24]": {"target": "T13, 318 nonolfactory human GPCRs (Homo sapiens, UniProt P46091)", "T13 construct": "expressed in transfected cells; host or cells: HTLA cells, transient", "T13 sequence (P46091 whole entry)": "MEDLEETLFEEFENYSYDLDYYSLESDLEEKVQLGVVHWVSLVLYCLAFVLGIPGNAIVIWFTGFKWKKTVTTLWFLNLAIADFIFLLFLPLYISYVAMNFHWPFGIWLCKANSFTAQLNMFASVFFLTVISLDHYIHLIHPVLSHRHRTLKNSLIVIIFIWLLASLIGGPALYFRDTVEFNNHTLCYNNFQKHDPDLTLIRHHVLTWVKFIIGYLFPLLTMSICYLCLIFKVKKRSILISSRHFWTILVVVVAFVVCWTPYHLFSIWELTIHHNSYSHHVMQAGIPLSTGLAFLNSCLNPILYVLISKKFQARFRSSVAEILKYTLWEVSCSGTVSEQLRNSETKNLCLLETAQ", "settings": "GPR1; C21 5 µM"}, "[25]": {"target": "T14, 318 nonolfactory human GPCRs (Homo sapiens, UniProt P46095)", "T14 construct": "expressed in transfected cells; host or cells: HTLA cells, transient", "settings": "GPR6; C21 5 µM"}, "[26]": {"target": "318 nonolfactory human GPCRs (Homo sapiens, UniProt P25025)", "settings": "CXCR2; C21 5 µM"}, "[27]": {"target": "T15, 318 nonolfactory human GPCRs (Homo sapiens, UniProt Q9HC97)", "T15 construct": "expressed in transfected cells; host or cells: HTLA cells, transient", "settings": "GPR35; C21 5 µM"}, "[28]": {"target": "T16, 318 nonolfactory human GPCRs (Homo sapiens, UniProt P60893)", "T16 construct": "expressed in transfected cells; host or cells: HTLA cells, transient", "settings": "GPR85; C21 5 µM"}, "[29]": {"target": "T17, 318 nonolfactory human GPCRs (Homo sapiens, UniProt P47775)", "T17 construct": "expressed in transfected cells; host or cells: HTLA cells, transient", "settings": "GPR12; C21 5 µM"}, "[30]": {"target": "T18, 318 nonolfactory human GPCRs (Homo sapiens, UniProt Q16538)", "T18 construct": "expressed in transfected cells; host or cells: HTLA cells, transient", "settings": "GPR162; C21 5 µM"}, "[31]": {"target": "318 nonolfactory human GPCRs (Homo sapiens, UniProt Q8TDS4)", "sequence (Q8TDS4 whole entry)": "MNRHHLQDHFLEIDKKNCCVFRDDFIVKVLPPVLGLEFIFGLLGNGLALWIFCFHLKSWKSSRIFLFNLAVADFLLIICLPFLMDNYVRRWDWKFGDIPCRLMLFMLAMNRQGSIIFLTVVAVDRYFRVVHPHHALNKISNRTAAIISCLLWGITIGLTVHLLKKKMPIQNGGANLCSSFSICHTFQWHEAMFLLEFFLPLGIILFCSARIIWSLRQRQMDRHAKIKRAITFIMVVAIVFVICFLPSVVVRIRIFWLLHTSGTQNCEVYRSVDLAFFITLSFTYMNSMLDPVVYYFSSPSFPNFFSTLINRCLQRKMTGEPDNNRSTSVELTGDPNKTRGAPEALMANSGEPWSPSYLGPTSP", "settings": "HCA2; C21 5 µM"}, "[32]": {"target": "T19, 318 nonolfactory human GPCRs (Homo sapiens, UniProt O15354)", "T19 construct": "expressed in transfected cells; host or cells: HTLA cells, transient", "settings": "GPR37; C21 5 µM"}, "[33]": {"target": "T20, 318 nonolfactory human GPCRs (Homo sapiens, UniProt Q9H3N8)", "T20 construct": "expressed in transfected cells; host or cells: HTLA cells, transient", "settings": "HRH4; C21 5 µM"}}, "note": "Where “and” joins values, the source holds several entries; their conditions need not be identical. Equal entries are not always repeated. Where two headings read alike, the source gives them in different places.", "data": [{"smiles": "c1ccc2c(c1)N=C(N1CCNCC1)c1ccccc1N2", "note": "[C21, 11-(1-piperazinyl)-5H-dibenzo[b,e][1,4]diazepine]", "values": [{"measurement": "FOLD OVER BASAL", "setting": "[1]", "result": "0.7 fold and 1 fold and 0.9 fold"}, {"measurement": "FOLD OVER BASAL", "setting": "[2]; CALCRb", "result": "0.8 fold and 0.6 fold and 0.5 fold"}, {"measurement": "FOLD OVER BASAL", "setting": "[2]; GAL2", "result": "1.2 fold and 0.9 fold and 1.3 fold"}, {"measurement": "FOLD OVER BASAL", "setting": "[2]; GAL3", "result": "1.1 fold and 0.7 fold and 0.9 fold"}, {"measurement": "FOLD OVER BASAL", "setting": "[2]; HCTR2", "result": "1.1 fold and 0.8 fold and 0.6 fold"}, {"measurement": "FOLD OVER BASAL", "setting": "[2]; PK1", "result": "1.3 fold and 1.4 fold and 0.8 fold and 1.5 fold"}, {"measurement": "FOLD OVER BASAL", "setting": "[2]; PRRP", "result": "1 fold and 0.9 fold and 0.6 fold"}, {"measurement": "agonist activity at GPCRome (fold of basal)", "setting": "[2]; single concentration 5 μM, PRESTO-Tango, quadruplicate", "result": "agonist activity only at M4-, D2-, and H4-histamine receptors"}, {"measurement": "FOLD OVER BASAL", "setting": "[3]", "result": "1.1 fold and 0.9 fold and 1 fold"}, {"measurement": "FOLD OVER BASAL", "setting": "[4]", "result": "0.8 fold and 1 fold and 0.5 fold and 0.7 fold"}, {"measurement": "FOLD OVER BASAL", "setting": "[5]", "result": "0.4 fold and 0.3 fold"}, {"measurement": "FOLD OVER BASAL", "setting": "[6]", "result": "0.6 fold and 1.2 fold and 0.9 fold and 0.7 fold"}, {"measurement": "FOLD OVER BASAL", "setting": "[7]", "result": "0.6 fold and 1 fold and 0.8 fold"}, {"measurement": "FOLD OVER BASAL", "setting": "[8]", "result": "1.1 fold and 1 fold and 0.7 fold and 0.9 fold"}, {"measurement": "FOLD OVER BASAL", "setting": "[9]", "result": "0.8 fold and 0.9 fold and 1.1 fold"}, {"measurement": "FOLD OVER BASAL", "setting": "[10]", "result": "0.9 fold and 0.7 fold and 0.6 fold"}, {"measurement": "FOLD OVER BASAL", "setting": "[11]", "result": "1.3 fold and 1.6 fold and 1.5 fold"}, {"measurement": "FOLD OVER BASAL", "setting": "[12]", "result": "1.1 fold and 1.3 fold and 1.4 fold"}, {"measurement": "FOLD OVER BASAL", "setting": "[13]", "result": "1.2 fold and 1.3 fold and 0.9 fold"}, {"measurement": "FOLD OVER BASAL", "setting": "[14]", "result": "0.5 fold and 0.4 fold and 0.3 fold"}, {"measurement": "FOLD OVER BASAL", "setting": "[15]", "result": "0.9 fold and 0.8 fold and 0.6 fold"}, {"measurement": "FOLD OVER BASAL", "setting": "[16]", "result": "0.9 fold and 1.3 fold and 1.2 fold"}, {"measurement": "FOLD OVER BASAL", "setting": "[17]", "result": "0.6 fold and 0.8 fold and 0.7 fold and 0.5 fold"}, {"measurement": "FOLD OVER BASAL", "setting": "[18]", "result": "1.1 fold and 0.6 fold and 0.7 fold"}, {"measurement": "FOLD OVER BASAL", "setting": "[19]", "result": "1.1 fold and 0.9 fold and 1.2 fold"}, {"measurement": "FOLD OVER BASAL", "setting": "[20]", "result": "8.7 fold and 13.6 fold and 9.4 fold and 16.1 fold"}, {"measurement": "FOLD OVER BASAL", "setting": "[21]", "result": "3.4 fold and 2.2 fold and 2 fold and 1.9 fold"}, {"measurement": "FOLD OVER BASAL", "setting": "[22]", "result": "1 fold and 1.1 fold and 0.9 fold"}, {"measurement": "FOLD OVER BASAL", "setting": "[23]", "result": "1 fold and 0.7 fold"}, {"measurement": "FOLD OVER BASAL", "setting": "[24]", "result": "1.1 fold and 1.4 fold and 0.8 fold and 1 fold"}, {"measurement": "FOLD OVER BASAL", "setting": "[25]", "result": "0.9 fold and 1.3 fold and 1 fold and 1.2 fold"}, {"measurement": "FOLD OVER BASAL", "setting": "[26]", "result": "0.9 fold and 1 fold"}, {"measurement": "FOLD OVER BASAL", "setting": "[27]", "result": "1 fold and 1.2 fold and 0.9 fold and 1.3 fold"}, {"measurement": "FOLD OVER BASAL", "setting": "[28]", "result": "0.8 fold and 1.2 fold and 1 fold"}, {"measurement": "FOLD OVER BASAL", "setting": "[29]", "result": "0.5 fold and 0.7 fold and 0.6 fold"}, {"measurement": "FOLD OVER BASAL", "setting": "[30]", "result": "0.6 fold and 0.7 fold and 0.9 fold"}, {"measurement": "FOLD OVER BASAL", "setting": "[31]", "result": "1.2 fold and 1.1 fold and 1.3 fold and 1.4 fold"}, {"measurement": "FOLD OVER BASAL", "setting": "[32]", "result": "1.1 fold and 0.9 fold and 1.2 fold and 0.7 fold"}, {"measurement": "FOLD OVER BASAL", "setting": "[33]", "result": "6.3 fold and 4 fold and 5.7 fold and 3.8 fold"}]}]}
